Converted amounts (≈) assume the structure as drawn.
Assays:
Assay type in all cases: functional
[1] = tested on: Mycobacterium tuberculosis; assay: Antitubercular activity against Mycobacterium tuberculosis H37Rv assessed as growth inhibition by secondary screen assay
[2] = tested on: Mycobacterium tuberculosis; assay: Antitubercular activity against Mycobacterium tuberculosis H37Rv assessed as growth inhibition by primary screen assay
[3] = tested on: Mycobacterium tuberculosis; assay: Antitubercular activity against Mycobacterium tuberculosis H37Rv assessed as growth inhibition at <6.25 ug/ml by primary screen assay
[4] = tested on: Mycobacterium tuberculosis; assay: Antitubercular activity against Mycobacterium tuberculosis H37Rv assessed as growth inhibition at >6.25 ug/ml by primary screen assay

Structure (SMILES)	MIC [1] [µg/mL]	MIC [2] [µg/mL]	inhibition (INH) [3] [%]	inhibition (INH) [4] [%]
Cc1ccc(-n2cc(/C=N/n3c(-c4ccccc4C)nc4ccccc4c3=O)c(-c3ccncc3)n2)cc1	< 3.12	< 6.25	94	
Cc1ccc(-n2cc(/C=N/n3c(-c4cccc(C)c4)nc4ccccc4c3=O)c(-c3ccncc3)n2)cc1		> 6.25		70
Cc1ccc(-c2nc3ccccc3c(=O)n2/N=C/c2cn(-c3ccc(C)cc3)nc2-c2ccncc2)cc1		> 6.25		67
COc1ccccc1-c1nc2ccccc2c(=O)n1/N=C/c1cn(-c2ccc(C)cc2)nc1-c1ccncc1	< 3.12	< 6.25	93	
COc1cccc(-c2nc3ccccc3c(=O)n2/N=C/c2cn(-c3ccc(C)cc3)nc2-c2ccncc2)c1		> 6.25		64
COc1ccc(-c2nc3ccccc3c(=O)n2/N=C/c2cn(-c3ccc(C)cc3)nc2-c2ccncc2)cc1		> 6.25		59
Cc1ccc(-n2cc(/C=N/n3c(-c4ccccc4[N+](=O)[O-])nc4ccccc4c3=O)c(-c3ccncc3)n2)cc1		> 6.25		73
Cc1ccc(-n2cc(/C=N/n3c(-c4cccc([N+](=O)[O-])c4)nc4ccccc4c3=O)c(-c3ccncc3)n2)cc1	< 3.12	< 6.25	92	
Cc1ccc(-n2cc(/C=N/n3c(-c4ccc([N+](=O)[O-])cc4)nc4ccccc4c3=O)c(-c3ccncc3)n2)cc1		> 6.25		67
Cc1ccc(-n2cc(/C=N/n3c(-c4ccccc4Cl)nc4ccccc4c3=O)c(-c3ccncc3)n2)cc1	< 3.12	< 6.25	96	
Cc1ccc(-n2cc(/C=N/n3c(-c4cccc(Cl)c4)nc4ccccc4c3=O)c(-c3ccncc3)n2)cc1		> 6.25		68
Cc1ccc(-n2cc(/C=N/n3c(-c4ccc(Cl)cc4)nc4ccccc4c3=O)c(-c3ccncc3)n2)cc1	< 3.12	< 6.25	90	
NNC(=O)c1ccncc1 [ISONIAZID]	0.125 (≈ 0.911 µM)	< 6.25		
